Consider ten compounds from patent publication US10449216B2, “Modulating drug effects against metabotropic glutamate receptor with extracellular calcium” (GEORGIA STATE UNIVERSITY RESEARCH FOUNDATION, INC., priority 2013, dated 2019).

Entries after “also recorded” stand apart in the source; their conditions may differ. Like-named read-outs stand apart in the source and are kept apart here.

In assay [1] the target is mGluR1 (Homo sapiens, UniProt Q13255). Particulars: mGluR1, Sp. Hs; cited from earlier work.
Sequence of mGluR1 (Homo sapiens, UniProt Q13255) (Q13255 19-1194): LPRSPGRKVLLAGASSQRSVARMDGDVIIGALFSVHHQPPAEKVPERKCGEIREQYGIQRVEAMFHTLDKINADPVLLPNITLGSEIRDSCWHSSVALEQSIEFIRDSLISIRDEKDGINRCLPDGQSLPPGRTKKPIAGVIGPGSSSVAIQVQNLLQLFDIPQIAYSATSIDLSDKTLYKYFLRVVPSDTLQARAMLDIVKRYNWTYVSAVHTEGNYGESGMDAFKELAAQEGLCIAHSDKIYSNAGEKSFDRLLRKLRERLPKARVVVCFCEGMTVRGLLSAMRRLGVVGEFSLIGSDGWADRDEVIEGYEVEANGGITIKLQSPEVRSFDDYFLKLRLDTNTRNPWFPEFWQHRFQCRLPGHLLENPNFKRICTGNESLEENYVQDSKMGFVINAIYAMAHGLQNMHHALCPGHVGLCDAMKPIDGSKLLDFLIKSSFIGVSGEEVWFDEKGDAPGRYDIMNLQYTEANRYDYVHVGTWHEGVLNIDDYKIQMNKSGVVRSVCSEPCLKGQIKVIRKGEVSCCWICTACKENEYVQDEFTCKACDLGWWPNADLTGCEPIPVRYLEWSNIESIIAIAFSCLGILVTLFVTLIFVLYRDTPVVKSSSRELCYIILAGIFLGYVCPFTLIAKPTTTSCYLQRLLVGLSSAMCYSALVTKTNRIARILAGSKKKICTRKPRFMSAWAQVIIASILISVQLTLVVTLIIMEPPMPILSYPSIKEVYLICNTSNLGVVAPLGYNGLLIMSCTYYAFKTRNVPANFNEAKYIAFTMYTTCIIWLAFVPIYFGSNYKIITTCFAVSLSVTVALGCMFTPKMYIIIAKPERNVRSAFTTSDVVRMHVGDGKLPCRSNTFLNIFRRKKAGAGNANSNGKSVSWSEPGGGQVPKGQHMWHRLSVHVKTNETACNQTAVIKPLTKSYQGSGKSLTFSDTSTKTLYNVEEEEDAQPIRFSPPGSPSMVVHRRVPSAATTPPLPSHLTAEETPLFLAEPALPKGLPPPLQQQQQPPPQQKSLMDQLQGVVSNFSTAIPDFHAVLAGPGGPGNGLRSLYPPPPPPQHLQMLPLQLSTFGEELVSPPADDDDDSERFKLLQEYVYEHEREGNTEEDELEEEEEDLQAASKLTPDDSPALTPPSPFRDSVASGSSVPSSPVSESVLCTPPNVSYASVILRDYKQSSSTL
The target in assay [2] is T1, mGluR5 (Rattus norvegicus, UniProt P31424). Particulars: mGluR5, Sp. Rn; cited from earlier work.
T1 sequence (P31424 21-1203): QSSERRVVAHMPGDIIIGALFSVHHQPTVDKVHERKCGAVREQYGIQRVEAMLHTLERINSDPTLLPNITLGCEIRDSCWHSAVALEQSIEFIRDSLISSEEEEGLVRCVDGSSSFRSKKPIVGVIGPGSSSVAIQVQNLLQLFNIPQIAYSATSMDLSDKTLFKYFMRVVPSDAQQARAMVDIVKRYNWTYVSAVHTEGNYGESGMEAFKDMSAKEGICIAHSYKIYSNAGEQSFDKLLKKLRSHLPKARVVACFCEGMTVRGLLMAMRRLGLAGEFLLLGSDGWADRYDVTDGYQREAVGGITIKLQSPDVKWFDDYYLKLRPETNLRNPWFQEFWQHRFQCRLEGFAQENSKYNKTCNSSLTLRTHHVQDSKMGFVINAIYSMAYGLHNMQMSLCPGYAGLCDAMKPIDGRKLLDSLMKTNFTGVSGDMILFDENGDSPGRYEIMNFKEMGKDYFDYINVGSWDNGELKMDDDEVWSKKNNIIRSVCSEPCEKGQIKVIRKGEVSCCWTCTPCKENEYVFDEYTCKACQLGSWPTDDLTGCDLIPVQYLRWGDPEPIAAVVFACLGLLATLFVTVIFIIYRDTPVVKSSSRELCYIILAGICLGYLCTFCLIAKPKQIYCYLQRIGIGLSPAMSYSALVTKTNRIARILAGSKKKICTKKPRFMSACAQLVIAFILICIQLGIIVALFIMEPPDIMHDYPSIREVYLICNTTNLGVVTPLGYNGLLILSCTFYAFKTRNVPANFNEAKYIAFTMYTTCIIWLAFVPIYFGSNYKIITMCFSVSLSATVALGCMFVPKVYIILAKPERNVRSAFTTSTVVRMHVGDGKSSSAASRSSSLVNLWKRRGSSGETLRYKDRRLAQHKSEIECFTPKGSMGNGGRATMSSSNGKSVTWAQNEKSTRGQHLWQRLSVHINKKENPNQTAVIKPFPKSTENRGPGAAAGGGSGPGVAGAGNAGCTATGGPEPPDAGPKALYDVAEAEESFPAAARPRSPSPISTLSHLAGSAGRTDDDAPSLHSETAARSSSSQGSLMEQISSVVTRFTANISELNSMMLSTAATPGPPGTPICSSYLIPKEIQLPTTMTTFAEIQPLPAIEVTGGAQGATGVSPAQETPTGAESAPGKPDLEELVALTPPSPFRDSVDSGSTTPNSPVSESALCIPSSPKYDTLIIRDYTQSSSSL
For assay [3], the target named is T2, mGluR1 (Rattus norvegicus, UniProt P23385). Particulars: mGluR1, Sp. Rn; cited from earlier work.
T2 sequence (P23385 19-1199): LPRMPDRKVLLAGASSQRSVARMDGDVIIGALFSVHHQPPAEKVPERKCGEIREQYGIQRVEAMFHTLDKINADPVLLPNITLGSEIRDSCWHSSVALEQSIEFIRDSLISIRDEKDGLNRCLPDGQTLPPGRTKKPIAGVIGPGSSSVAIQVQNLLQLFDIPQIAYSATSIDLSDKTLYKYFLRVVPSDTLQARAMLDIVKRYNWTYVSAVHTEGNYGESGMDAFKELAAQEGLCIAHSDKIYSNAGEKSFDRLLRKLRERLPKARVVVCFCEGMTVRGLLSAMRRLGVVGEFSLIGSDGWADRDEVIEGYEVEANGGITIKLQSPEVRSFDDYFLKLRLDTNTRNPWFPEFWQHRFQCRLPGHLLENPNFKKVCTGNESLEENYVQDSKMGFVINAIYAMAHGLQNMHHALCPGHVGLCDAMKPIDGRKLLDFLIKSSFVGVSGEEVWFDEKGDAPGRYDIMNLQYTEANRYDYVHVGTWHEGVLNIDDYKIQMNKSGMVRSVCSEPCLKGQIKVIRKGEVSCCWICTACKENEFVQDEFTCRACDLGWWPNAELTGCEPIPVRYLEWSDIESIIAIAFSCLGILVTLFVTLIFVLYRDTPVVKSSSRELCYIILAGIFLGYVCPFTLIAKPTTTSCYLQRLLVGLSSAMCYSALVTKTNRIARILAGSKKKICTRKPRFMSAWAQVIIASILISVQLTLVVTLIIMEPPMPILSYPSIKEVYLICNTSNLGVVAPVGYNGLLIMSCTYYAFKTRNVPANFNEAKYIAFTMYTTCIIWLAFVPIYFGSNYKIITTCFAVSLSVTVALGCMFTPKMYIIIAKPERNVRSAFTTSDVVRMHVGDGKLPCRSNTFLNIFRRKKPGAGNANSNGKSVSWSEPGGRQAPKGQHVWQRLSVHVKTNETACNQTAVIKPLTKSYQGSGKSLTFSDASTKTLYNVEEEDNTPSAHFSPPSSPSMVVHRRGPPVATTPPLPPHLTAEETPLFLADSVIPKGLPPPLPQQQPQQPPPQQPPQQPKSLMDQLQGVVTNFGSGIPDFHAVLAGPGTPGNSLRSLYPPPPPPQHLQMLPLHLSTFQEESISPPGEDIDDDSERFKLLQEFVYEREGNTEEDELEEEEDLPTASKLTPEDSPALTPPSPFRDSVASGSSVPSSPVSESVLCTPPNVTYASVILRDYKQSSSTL
Assay [4] concerns the target T1, mGluR5. Nature of the assay: Intracellular Ca^2+ response/oscillation in mGluR5 transfected HEK293 cells. The class given is cell-based. On the set-up: expressed in transfected cells; host or cells: HEK293. The following applies: for Percentage of cells with oscillation as a response to L-Glu: low concentration of L-Glu. How it is done: HEK293 cells were fed on a Dulbecco's Modified Eagle Medium (DMEM) and 10% fetal bovine serum (Invitrogen) and cultured at 37° C. in a humidified incubator with 5% CO2. One day before transfection, HEK293 cells were grown on 22×44 mm coverslips and then were transfected with mGluR5 plasmid (received as a gift from Dr. Randy Hall, Emory University, Atlanta, Ga.) with the aid of lipofectamine 2000 (Invitrogen). mGluR5 transfected HEK293 cells were grown for 48 hours and then loaded with 4 µM Fura-2 AM in loading buffer containing 10 mM HEPES (pH 7.4), 140 mM NaCl, 5 mM KCl, 0.55 mM MgCl2 for 30 minutes at 37° C. The coverslips were then mounted in a bathing chamber on the stage of a fluorescence microscope. […] The ratio of fluorescence emitted at 510 nm resulting from excitation at 340 or 380 nm was analyzed to obtain the [Ca^2+]i response as a function of changes in [Ca^2+]o.
HEK293 cells were cultured and transfected as described above. Intracellular Ca^2+ concentration was recorded using the method as described previously. […]

Assay [5] deals with T3, mGluR1α E325I (Rattus norvegicus, UniProt P23385, E325I).
T3 construct: expressed in transfected cells; host or cells: HEK293
T3 sequence (P23385 19-1199 E325I): as the sequence (P23385 19-1199) above, with E307I counted along it
Briefly: Single cell Fura-2 [Ca^2+]i response in HEK293 cells transfected with mGluR1α variant E325I. The class given is cell-based. The following applies: HEK293, read-out: Maximal Response to L-Quis, E325I, normalized to maximal response of WT mGluR1α to L-Glu.

The target of assay [6] is T4, mGluR1α D322I (Rattus norvegicus, UniProt P23385, D322I).
T4 construct: expressed in transfected cells; host or cells: HEK293
T4 sequence (P23385 19-1199 D322I): as the sequence (P23385 19-1199) above, with D304I counted along it
Briefly: Single cell Fura-2 [Ca^2+]i response in HEK293 cells transfected with mGluR1α variant D322I. The class given is cell-based. Particulars: HEK293, read-out: Maximal Response to L-Quis, D322I, normalized to maximal response of WT mGluR1α to L-Glu.

Assay [7] deals with T5, WT mGluR1α (Rattus norvegicus, UniProt P23385).
T5 construct: expressed in transfected cells; host or cells: HEK293
T5 sequence (P23385 19-1199): as the sequence (P23385 19-1199) above
Nature of the assay: Single cell Fura-2 [Ca^2+]i response in HEK293 cells transiently transfected with WT mGluR1α. In kind it is cell-based. The following applies: for Max. Res. to Ro 67-4853 / Response to [Ca^2+]o: Maximal Response / Max. Res. to Ca^2+: normalized to maximal response of WT mGluR1α to L-Glu.
Description: The methods for measuring [Ca^2+]i responses were as described above. In the presence of (s)-MCPG, the cells were incubated with 0.5 mM (s)-MCPG in a saline buffer for 30 more minutes after Fura-2 loading.
Fura-2AM was used for monitoring [Ca^2+]i in real time as described above. […] Cells loaded with Fura-2AM were mounted onto a chamber perfused with saline buffer.

The next assay has as its target T6, mGluR1α D318I (Rattus norvegicus, UniProt P23385, D318I).
T6 construct: expressed in transfected cells; host or cells: HEK293
Nature of the assay: [^3H]-L-Quis binding to membranes of HEK293 cells expressing D318I. Particulars: hypotonic buffer. As for the experimental part:
HEK293 cells transiently transfected with wild type mGluR1α or its mutants were maintained in a 5% CO2 37° C. incubator for an additional 48 hours as before. Cells were then collected in ice cold hypotonic buffer (20 mM HEPES, 100 mM NaCl, 5 mM MgCl2, 5 mM KCl, 0.5 mM EDTA, and 1% protease inhibitors at pH 7.0-7.5). The cell pellet was washed twice more using hypotonic buffer to remove the L-Glu in the cellular debris. The crude membrane protein (100 μg) was mixed with 30 nM [^3H]-L-Quis in 100 μL of hypotonic buffer. The nonspecific binding was determined by measuring bound [^3H]-L-Quis in the presence of 200 μM L-Glu. […] The reaction mixtures were incubated on ice for at least 1 hour, and the membrane-bound [^3H]-L-Quis was captured on filter paper using a Brandel cell harvester under vacuum. The filter paper was then transferred to scintillation fluid, and [^3H]-L-Quis was detected using a Beckman LS 6500 multi-purpose scintillation counter.

Assay [8] deals with T2, mGluR1. Briefly: Fura-2 intracellular calcium release in mGluR1-transfected HEK293 cells (Example 4). In kind it is cell-based. The arrangement: expressed in transfected cells; host or cells: HEK293. Particulars: 3 mM/6 mM calcium, after wash with 0 mM calcium. (In general: Calcium flux is commonly read through the fluorescence of an indicator in the cells.)
Description: The coverslips with transfected, Fura-2-loaded HEK293 cells were placed diagonally in 3-ml quartz cuvettes containing bath buffer. The fluorescence spectra at 510 nm were measured during stepwise increases in [Ca2+]o with alternating excitation at 340 or 380 nm. The ratio of the intensities of the emitted light at 510 nm when excited at 340 or 380 nm was used to monitor changes in [Ca2+]i. mCherry was genetically fused into mGluR1 pcDNA. so cells have fluorescent intensity at 550 nm was selected for further analysis.
The target of assay [9] is T4, mGluR1α D322I. Nature of the assay: [^3H]-L-Quis binding to membranes of HEK293 cells expressing D322I. Particulars: in the presence of 30 nM [^3H]-L-Quis, read-out: KD, [Ca^2+]o-binding affinity of mGluR1α.
Assay [10] has as its target T3, mGluR1α E325I. Briefly: [^3H]-L-Quis binding to membranes of HEK293 cells expressing E325I. Particulars: with 300 nM [^3H]-L-Quis, read-out: KD, [Ca^2+]o-binding affinity of mGluR1α.
Assay [11] concerns the target T5, WT mGluR1α. Nature of the assay: [^3H]-L-Quis binding to membranes of HEK293 cells expressing WT mGluR1α.

T6 sequence (P23385 19-1199 D318I): as the sequence (P23385 19-1199) above, with D300I counted along it

As to `N[C@H](C(=O)O)c1ccc(C(=O)O)c(O)c1` [(S)-4C3HPG], the “Affinity (pKi)” value on mGluR1 [1] is 5.8-6.0 pKi. Besides, the “Affinity (pIC50)” value at mGluR5 [2] was 5.6 pIC50.
On to `CN(C)c1ccnc2sc3c(=O)n(N4CCCCCC4)cnc3c12` [A841720], for which the “Affinity (pIC50)” value on mGluR1 [1] is reported as 8 pIC50.
As for `NC1(C(=O)O)CCc2cc(C(=O)O)ccc21` (stereo not shown) [AIDA], the “Affinity (pA2)” value on mGluR1 [1] was 4.2 pA2. On mGluR1 [3], the “Affinity (pKi)” value was 4 pKi.
In the case of `N[C@@H](CCC(=O)O)C(=O)O` [L-Glu, L-glutamic acid], the “Percentage of cells with oscillation as a response to L-Glu” value at mGluR5 [4] (0.5 or 1.8 mM extracellular Ca^2+) is reported as “more than 50%”; on mGluR5 [4] (without extracellular Ca^2+), “less than 10%”.
Take `N[C@@H](Cn1oc(=O)[nH]c1=O)C(=O)O` [L-Quis, L-Quisqualate]: on mGluR5 [4] (0 mM Ca^2+ bath solution), the “mGluR5 response initiated by L-Quis” value was “almost could not initiate any mGluR5 response; also recorded: hardly showed any response”. The “Percentage of cells with L-Quis-triggered response” value is recorded as “less than 20%” on mGluR5 [4] (absence of extracellular Ca^2+ addition) and “more than 60%” on mGluR5 [4] (with addition of extracellular Ca^2+, 5 nM L-Quis). The Emax at mGluR1α E325I [5] ([Ca^2+]o 0 mM) was 60 ± 8%; at mGluR1α E325I [5] ([Ca^2+]o 1.8 mM) it was 88 ± 8%; at mGluR1α D322I [6] ([Ca^2+]o 0 mM), 80 ± 16%; on mGluR1α D322I [6] ([Ca^2+]o 1.8 mM), 96 ± 21%; at WT mGluR1α [7] (HEK293, read-out: Maximal Response to L-Quis), 37 ± 4%. For the same compound, on mGluR5 [2], the “Affinity (pIC50)” value is given as 7.5 pIC50. In addition, at mGluR1α D318I, the “[^3H]-L-Quis binding to the mutant” value was “eliminates L-Quis-binding”.
Take `Cc1cc(C(=O)O)ccc1[C@H](N)C(=O)O` [LY367385]: on mGluR1 [1], the “Affinity (pIC50)” value is given as 5.1 pIC50. Also, the “Affinity (pKi)” value at mGluR1 [3] was 5.9 pKi.
As to `COc1ccc(Nc2ncnc3ccc(OC)cc23)cc1` [LY456236], on mGluR1 [1], the “Affinity (pIC50)” value is recorded as 6.9 pIC50.
For `O=C(Cc1ccccc1)c1ccc2nc3c(cc2c1)CCCO3` [R214127], the “Affinity (pIC50)” value on mGluR1 [1] is 8.9 pIC50. Moreover, the “Affinity (pKi)” value on mGluR1 [3] is on record as 8.9 pKi.
In the case of `CCCCOC(=O)NC(=O)C1c2ccccc2Oc2ccccc21` [Ro 67-4853, (9H-xanthene-9-carbonyl) carbamic acid butyl ester], at mGluR5 [4] (0.5 mM Ca^2+, 5 nM), the “Stimulation of mGluR5 (intracellular Ca^2+ oscillation)” value is listed as “could lead to the stimulation of mGluR5; also recorded: caused high frequency Ca^2+ oscillation”. Besides, the “Stimulation of mGluR5 (intracellular Ca^2+ response)” value at mGluR5 [4] (no Ca^2+ in the bath solution, 5 to 100 nM) is recorded as “no intracellular Ca^2+ response was observed; also recorded: could not stimulate mGluR5”. Moreover, the “Max. Res. to Ro 67-4853” value at WT mGluR1α [7] ([Ca^2+]o 0.5 mM) is recorded as 50 ± 8; at WT mGluR1α [7] ([Ca^2+]o 1.8 mM) it was 59 ± 4. Further, the EC50 (usually the midpoint of the concentration-response curve) at WT mGluR1α [7] ([Ca^2+]o 0.5 mM, pre-incubated with 0.5 mM Ca^2+ and 5 nM Ro 67-4853, read-out: EC50 of Ro 67-4853) worked out at 0.0207 µM; on WT mGluR1α [7] ([Ca^2+]o 1.8 mM, read-out: EC50 of Ro 67-4853), 0.01 µM. The “Affinity (pKi)” value on mGluR1 [3] is on record as 5.1 pKi.
Take `[Ca+2]` [[Ca^2+]o]: the “Extracellular Ca^2+ concentration change that started to induce intracellular oscillation” value on mGluR5 [4] (no other agonist) came to 0.05 mM. In addition, the “Activation of mGluR1 by calcium alone” value on mGluR1 [8] is “no response was observed”. Besides, the Kd – broadly, the equilibrium constant for the complex coming apart – is 0.6 mM at mGluR1α D322I [9]; > 20 mM on mGluR1α E325I [10]; 0.3 mM on WT mGluR1α [11] (WT, in the presence of 30 nM [^3H]-L-Quis, read-out: KD, [Ca^2+]o-binding affinity of mGluR1α). Also, at WT mGluR1α [7] (0 versus 0.5 mM MCPG), the “Fold increase of the EC50 for [Ca^2+]o” value is recorded as ~1.7 fold. For the same compound, the EC50 at WT mGluR1α [7] (40 μM CPCCOEt, read-out: EC50 of mGluR1α for [Ca^2+]o) stood at 28700 µM; at WT mGluR1α [7] (0.5 mM (s)-MCPG, read-out: Response to [Ca^2+]o: EC50) it was 6000 µM; on WT mGluR1α [7] ((s)-MCPG 0, read-out: Response to [Ca^2+]o: EC50) it was 3500 µM; at WT mGluR1α [7] (CPCCOEt 0, read-out: Response to [Ca^2+]o: EC50) it was 3500 µM; at WT mGluR1α [7] (CPCCOEt Conc. 5 (μM), read-out: Response to [Ca^2+]o: EC50), 7600 µM; at WT mGluR1α [7] (Ro 67-4853 0 nM, read-out: EC50 of Ca^2+) it was 3500 µM. The EC50 is 2100 µM on WT mGluR1α [7] (Ro 67-4853 30 nM, read-out: EC50 of Ca^2+); 700 µM on WT mGluR1α [7] (Ro 67-4853 300 nM, read-out: EC50 of Ca^2+); 14700 µM on WT mGluR1α [7] (in the presence of 5 μM CPCCOEt, read-out: EC50 of mGluR1α for [Ca^2+]o); ~0.3 mM at WT mGluR1α [11] (wild type receptor, read-out: EC50 of [Ca^2+]o for enhancing L-Quis-binding). Besides, the “Response to [Ca^2+]o: nHill” value was 2.6 on WT mGluR1α [7] (0.5 mM (s)-MCPG); 6.4 at WT mGluR1α [7] ((s)-MCPG 0); 6.4 on WT mGluR1α [7] (CPCCOEt 0); 1.3 on WT mGluR1α [7] (CPCCOEt Conc. 5 (μM)); 1.1 at WT mGluR1α [7] (CPCCOEt Conc. 40 (nM)). Further, the “Response to [Ca^2+]o: Maximal Response” value on WT mGluR1α [7] (0.5 mM (s)-MCPG) is 67 ± 2; on WT mGluR1α [7] ((s)-MCPG 0) it was 85 ± 2; on WT mGluR1α [7] (CPCCOEt 0), 85 ± 2%; at WT mGluR1α [7] (CPCCOEt Conc. 5 (μM)), 75 ± 3%; at WT mGluR1α [7] (CPCCOEt Conc. 40 (nM)), 60 ± 3%. Further, the “Max. Res. to Ca^2+” value at WT mGluR1α [7] (Ro 67-4853 0 nM) was determined as 85 ± 2; at WT mGluR1α [7] (Ro 67-4853 30 nM) it was 83 ± 6; at WT mGluR1α [7] (Ro 67-4853 300 nM), 83 ± 2.
